Results as given in US10351575B2, “Bicyclic urea, thiourea, guanidine and cyanoguanidine compounds useful for the treatment of pain” (Array BioPharma Inc., priority 2012, dated 2019).

What was measured:
Assay in all cases: KinaseProfiler off-target kinase profiling
Type in all cases: biochemical
Settings in all cases: 10 μM, ATP near Km
Fer = Fer (Homo sapiens (Human), UniProt P16591)
Experimental: (§1) Representative compounds (Examples 12, 32, 26 and 2) of the invention were tested for off-target kinase activity at a concentration of 10 μM by Millipore, Inc. in their KinaseProfiler™ service against all the kinases available in their full kinase panel. Compounds were run in duplicate at a concentration of ATP near the Km for each individual kinase according to Millipore's specifications. The results are shown in Table B. Data are reported as percent of control (POC) and are the average of the two replicates.

TrkA = TrkA (Homo sapiens (Human), UniProt P04629)
Experimental: as §1

p38delta = p38delta (Homo sapiens (Human), UniProt O15264)
Sequence of p38delta (O15264 whole entry): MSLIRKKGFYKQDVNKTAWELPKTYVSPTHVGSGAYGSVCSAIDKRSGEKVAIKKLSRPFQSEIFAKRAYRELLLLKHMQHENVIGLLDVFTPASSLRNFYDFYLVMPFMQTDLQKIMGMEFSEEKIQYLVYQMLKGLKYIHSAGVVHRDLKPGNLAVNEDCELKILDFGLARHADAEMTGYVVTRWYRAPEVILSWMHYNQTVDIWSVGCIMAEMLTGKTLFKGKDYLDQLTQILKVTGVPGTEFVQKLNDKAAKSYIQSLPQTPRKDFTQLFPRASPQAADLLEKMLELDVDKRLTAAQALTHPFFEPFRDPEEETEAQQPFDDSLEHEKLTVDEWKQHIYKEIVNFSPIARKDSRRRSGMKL
Experimental: as §1

MINK = MINK (Homo sapiens (Human), UniProt Q8N4C8)
Experimental: as §1

Txk = Txk (Homo sapiens (Human), UniProt P42681)
Experimental: as §1

FGFR2 = FGFR2 (Homo sapiens (Human), UniProt P21802)
Experimental: as §1

PAK4 = PAK4 (Homo sapiens (Human), UniProt O96013)
Experimental: as §1

HIPK3 = HIPK3 (Homo sapiens (Human), UniProt Q9H422)
Experimental: as §1

TSSK1 = TSSK1 (Homo sapiens (Human), UniProt Q9BXA7)
Experimental: as §1

CK1delta = CK1delta (Homo sapiens (Human), UniProt P48730)
Sequence of CK1delta (P48730 whole entry): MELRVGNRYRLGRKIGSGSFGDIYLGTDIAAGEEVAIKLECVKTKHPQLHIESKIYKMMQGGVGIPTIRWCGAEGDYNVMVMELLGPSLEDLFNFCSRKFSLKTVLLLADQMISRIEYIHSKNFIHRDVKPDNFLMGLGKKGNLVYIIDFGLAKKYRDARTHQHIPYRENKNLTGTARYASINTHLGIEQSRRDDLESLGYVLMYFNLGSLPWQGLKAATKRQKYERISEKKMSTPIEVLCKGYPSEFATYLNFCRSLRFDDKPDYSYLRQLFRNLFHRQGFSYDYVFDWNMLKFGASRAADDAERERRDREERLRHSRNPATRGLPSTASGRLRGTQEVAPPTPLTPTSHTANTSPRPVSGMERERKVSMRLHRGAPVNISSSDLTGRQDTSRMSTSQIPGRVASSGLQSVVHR
Experimental: as §1

MARK1 = MARK1 (Homo sapiens (Human), UniProt Q9P0L2)
Experimental: as §1

EphB3 = EphB3 (Homo sapiens (Human), UniProt P54753)
Experimental: as §1

MKNK2 = MKNK2 (Homo sapiens (Human), UniProt Q9HBH9)
Sequence of MKNK2 (Q9HBH9 whole entry): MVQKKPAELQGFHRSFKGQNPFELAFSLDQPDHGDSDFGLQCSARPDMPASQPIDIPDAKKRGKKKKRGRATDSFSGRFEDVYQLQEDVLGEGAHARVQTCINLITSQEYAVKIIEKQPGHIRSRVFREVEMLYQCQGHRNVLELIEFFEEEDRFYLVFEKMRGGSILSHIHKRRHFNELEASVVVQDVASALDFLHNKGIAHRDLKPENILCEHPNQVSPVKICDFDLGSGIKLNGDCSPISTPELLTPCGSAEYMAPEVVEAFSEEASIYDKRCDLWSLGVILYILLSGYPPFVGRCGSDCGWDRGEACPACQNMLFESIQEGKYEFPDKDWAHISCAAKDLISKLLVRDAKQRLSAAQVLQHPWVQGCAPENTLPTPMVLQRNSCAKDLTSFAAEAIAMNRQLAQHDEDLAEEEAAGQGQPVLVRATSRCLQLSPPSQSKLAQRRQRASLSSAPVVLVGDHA
Experimental: as §1

SGK1 = SGK1 (Homo sapiens (Human), UniProt O00141)
Sequence of SGK1 (O00141 whole entry): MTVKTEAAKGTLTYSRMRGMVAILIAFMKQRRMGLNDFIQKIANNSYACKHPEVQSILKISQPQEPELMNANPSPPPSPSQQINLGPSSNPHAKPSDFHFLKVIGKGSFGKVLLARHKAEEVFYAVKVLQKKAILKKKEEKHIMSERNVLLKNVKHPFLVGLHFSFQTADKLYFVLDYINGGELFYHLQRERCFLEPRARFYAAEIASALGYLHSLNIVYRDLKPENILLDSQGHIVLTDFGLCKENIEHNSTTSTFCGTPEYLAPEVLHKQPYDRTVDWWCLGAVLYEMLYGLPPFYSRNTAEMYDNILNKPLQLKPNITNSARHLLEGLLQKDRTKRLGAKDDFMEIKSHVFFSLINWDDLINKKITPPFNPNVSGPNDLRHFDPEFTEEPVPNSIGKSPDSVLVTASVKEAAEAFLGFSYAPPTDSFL
Experimental: as §1

SRC = SRC (Homo sapiens (Human), UniProt P12931)
Experimental: as §1

BTK = BTK (Homo sapiens (Human), UniProt Q06187)
Experimental: as §1

JNK3 = JNK3 (Homo sapiens (Human), UniProt P53779)
Experimental: as §1

ULK3 = ULK3 (Homo sapiens (Human), UniProt Q6PHR2)
Experimental: as §1

Axl = Axl (Homo sapiens (Human), UniProt P30530)
Experimental: as §1

PrKX = PrKX (Homo sapiens (Human), UniProt P51817)
Sequence of PrKX (P51817 whole entry): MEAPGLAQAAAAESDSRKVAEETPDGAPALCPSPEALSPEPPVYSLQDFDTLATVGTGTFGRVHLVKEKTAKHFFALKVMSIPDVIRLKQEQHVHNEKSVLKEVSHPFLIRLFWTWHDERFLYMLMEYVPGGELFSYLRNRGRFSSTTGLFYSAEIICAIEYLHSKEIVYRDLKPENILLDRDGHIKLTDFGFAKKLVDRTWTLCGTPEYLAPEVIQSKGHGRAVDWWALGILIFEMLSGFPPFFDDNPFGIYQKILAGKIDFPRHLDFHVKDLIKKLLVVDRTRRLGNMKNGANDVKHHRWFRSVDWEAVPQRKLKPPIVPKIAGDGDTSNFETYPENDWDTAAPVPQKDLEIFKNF
Experimental: as §1

Yes = Yes (Homo sapiens (Human), UniProt P07947)
Experimental: as §1

eEF-2K = eEF-2K (Homo sapiens (Human), UniProt O00418)
Experimental: as §1

IR = IR (Homo sapiens (Human), UniProt P06213)
Experimental: as §1

ALK = ALK (Homo sapiens (Human), UniProt Q9UM73)
Experimental: as §1

CK1gamma2 = CK1gamma2 (Homo sapiens (Human), UniProt P78368)
Sequence of CK1gamma2 (P78368 whole entry): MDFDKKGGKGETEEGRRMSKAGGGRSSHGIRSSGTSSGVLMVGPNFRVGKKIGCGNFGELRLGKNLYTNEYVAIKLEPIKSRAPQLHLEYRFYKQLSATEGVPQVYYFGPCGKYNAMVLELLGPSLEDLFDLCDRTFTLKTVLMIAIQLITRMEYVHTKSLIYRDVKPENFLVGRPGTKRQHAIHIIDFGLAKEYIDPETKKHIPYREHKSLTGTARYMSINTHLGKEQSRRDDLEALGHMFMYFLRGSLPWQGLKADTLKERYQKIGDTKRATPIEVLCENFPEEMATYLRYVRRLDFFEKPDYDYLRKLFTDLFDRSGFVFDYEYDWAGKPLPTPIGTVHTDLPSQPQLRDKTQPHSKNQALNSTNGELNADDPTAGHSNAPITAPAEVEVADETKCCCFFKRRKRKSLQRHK
Experimental: as §1

CDK3/cyclinE = CDK3/cyclinE (Homo sapiens (Human), UniProt Q00526)
Experimental: as §1

Lck = Lck (Homo sapiens (Human), UniProt P06239)
Sequence of Lck (P06239 whole entry): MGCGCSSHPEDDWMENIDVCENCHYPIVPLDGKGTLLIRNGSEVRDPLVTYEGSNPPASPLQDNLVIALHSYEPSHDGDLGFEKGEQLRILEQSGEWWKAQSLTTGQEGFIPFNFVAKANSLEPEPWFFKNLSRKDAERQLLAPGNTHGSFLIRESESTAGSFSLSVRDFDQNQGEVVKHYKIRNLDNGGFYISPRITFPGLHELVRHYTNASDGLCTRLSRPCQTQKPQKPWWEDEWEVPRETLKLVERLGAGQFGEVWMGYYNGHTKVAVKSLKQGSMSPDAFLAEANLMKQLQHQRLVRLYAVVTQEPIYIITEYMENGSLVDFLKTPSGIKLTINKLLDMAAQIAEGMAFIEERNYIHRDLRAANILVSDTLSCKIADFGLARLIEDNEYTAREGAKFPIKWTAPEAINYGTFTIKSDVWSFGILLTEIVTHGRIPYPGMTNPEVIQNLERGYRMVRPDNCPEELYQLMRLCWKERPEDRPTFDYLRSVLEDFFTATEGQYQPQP
Experimental: as §1

KDR = KDR (Homo sapiens (Human), UniProt P35968)
Sequence of KDR (P35968 20-1356): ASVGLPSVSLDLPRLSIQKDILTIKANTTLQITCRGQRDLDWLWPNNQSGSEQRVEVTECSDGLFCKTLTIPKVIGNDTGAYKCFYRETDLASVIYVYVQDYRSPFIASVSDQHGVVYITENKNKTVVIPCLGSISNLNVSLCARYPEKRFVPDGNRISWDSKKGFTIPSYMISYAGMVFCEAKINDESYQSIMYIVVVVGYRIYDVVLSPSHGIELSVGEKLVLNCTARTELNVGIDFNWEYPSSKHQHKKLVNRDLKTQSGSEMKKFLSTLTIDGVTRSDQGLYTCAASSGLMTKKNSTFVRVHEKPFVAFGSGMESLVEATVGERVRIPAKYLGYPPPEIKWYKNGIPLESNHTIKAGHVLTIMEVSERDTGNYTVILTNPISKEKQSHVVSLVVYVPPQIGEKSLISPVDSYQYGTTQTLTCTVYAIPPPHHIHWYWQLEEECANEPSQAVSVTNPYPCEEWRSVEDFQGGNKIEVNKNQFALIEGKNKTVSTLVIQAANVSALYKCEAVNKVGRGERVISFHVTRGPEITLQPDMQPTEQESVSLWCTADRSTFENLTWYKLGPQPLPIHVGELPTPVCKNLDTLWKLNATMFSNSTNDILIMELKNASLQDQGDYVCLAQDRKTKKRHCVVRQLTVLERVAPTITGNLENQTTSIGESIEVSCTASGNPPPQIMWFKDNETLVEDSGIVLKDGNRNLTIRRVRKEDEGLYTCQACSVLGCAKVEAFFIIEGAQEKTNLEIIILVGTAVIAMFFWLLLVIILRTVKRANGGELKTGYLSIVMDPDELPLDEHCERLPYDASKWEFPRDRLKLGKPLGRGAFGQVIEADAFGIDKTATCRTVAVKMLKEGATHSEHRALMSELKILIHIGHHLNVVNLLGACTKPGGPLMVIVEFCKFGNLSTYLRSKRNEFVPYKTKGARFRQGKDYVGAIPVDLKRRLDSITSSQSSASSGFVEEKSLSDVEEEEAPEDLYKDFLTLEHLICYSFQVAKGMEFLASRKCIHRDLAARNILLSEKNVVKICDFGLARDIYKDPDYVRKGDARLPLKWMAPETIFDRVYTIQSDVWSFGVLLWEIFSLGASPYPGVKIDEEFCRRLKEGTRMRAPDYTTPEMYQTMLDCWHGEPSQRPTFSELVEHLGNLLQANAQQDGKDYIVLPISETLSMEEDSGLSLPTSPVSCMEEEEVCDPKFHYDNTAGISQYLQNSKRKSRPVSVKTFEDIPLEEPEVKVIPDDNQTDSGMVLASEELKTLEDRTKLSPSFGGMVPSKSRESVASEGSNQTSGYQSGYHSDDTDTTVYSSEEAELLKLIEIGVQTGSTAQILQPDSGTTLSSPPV
Experimental: as §1

Lyn = Lyn (Homo sapiens (Human), UniProt P07948)
Experimental: as §1

JNK1alpha1 = JNK1alpha1 (Homo sapiens (Human), UniProt P45983)
Experimental: as §1

Fgr = Fgr (Homo sapiens (Human), UniProt P09769)
Experimental: as §1

Mer = Mer (Homo sapiens (Human), UniProt Q12866)
Experimental: as §1

PKCalpha = PKCalpha (Homo sapiens (Human), UniProt P17252)
Experimental: as §1

ERK1 = ERK1 (Homo sapiens (Human), UniProt P27361)
Experimental: as §1

MRCKbeta = MRCKbeta (Homo sapiens (Human), UniProt Q9Y5S2)
Experimental: as §1

Flt4 = Flt4 (Homo sapiens (Human), UniProt P35916)
Experimental: as §1

ZAP-70 = ZAP-70 (Homo sapiens (Human), UniProt P43403)
Experimental: as §1

Flt1 = Flt1 (Homo sapiens (Human), UniProt P17948)
Experimental: as §1

DCAMKL2 = DCAMKL2 (Homo sapiens (Human), UniProt Q8N568)
Experimental: as §1

Avg. POC (Fer)	Avg. POC (TrkA)	Avg. POC (p38delta)	Avg. POC (MINK)	Avg. POC (Txk)	Avg. POC (FGFR2)	Avg. POC (PAK4)	Avg. POC (HIPK3)	Avg. POC (TSSK1)	Avg. POC (CK1delta)	Avg. POC (MARK1)	Avg. POC (EphB3)	Avg. POC (MKNK2)	Avg. POC (SGK1)	Avg. POC (SRC)	Avg. POC (BTK)	Avg. POC (JNK3)	Avg. POC (ULK3)	Avg. POC (Axl)	Avg. POC (PrKX)	Compound	other results
110.5 POC	1.5 POC	96.5 POC	110.5 POC	125 POC	112.5 POC	95 POC	119.5 POC	106 POC	117.5 POC	103 POC	110 POC	106.5 POC	150 POC	99.5 POC	111.5 POC	117.5 POC	105 POC	113.5 POC	152 POC	Cc1c(-c2cnn(C)c2)nn(-c2ccccc2)c1NC(=O)N[C@H]1CCCc2ccccc21 [Example 2, (S)-1-(1′,4-dimethyl-1-phenyl-1H,1′H-3,4′-bipyrazol-5-yl)-3-(1,2,3,4-tetrahydronaphthalen-1-yl)urea]	Avg. POC (Yes): 132.5 POC; Avg. POC (eEF-2K): 138 POC; Avg. POC (IR): 44 POC; Avg. POC (ALK): 111 POC; Avg. POC (CK1gamma2): 142.5 POC; Avg. POC (CDK3/cyclinE): 105.5 POC; Avg. POC (Lck): 97.5 POC; Avg. POC (KDR): 123.5 POC; Avg. POC (Lyn): 115 POC; Avg. POC (JNK1alpha1): 94 POC; Avg. POC (Fgr): 131 POC; Avg. POC (Mer): 109.5 POC; Avg. POC (PKCalpha): 96 POC; Avg. POC (ERK1): 120.5 POC; Avg. POC (MRCKbeta): 129.5 POC; Avg. POC (Flt4): 99 POC; Avg. POC (ZAP-70): 124 POC; Avg. POC (Flt1): 105.5 POC; Avg. POC (DCAMKL2): 157.5 POC
100.5 POC	−0.5 POC	99.5 POC	102 POC	139 POC	114 POC	103 POC	102.5 POC	79 POC	109.5 POC	104 POC	89 POC	103.5 POC	129 POC	97 POC	127 POC	107.5 POC	89.5 POC	106 POC	118.5 POC	Cc1c(-c2cnn(C)c2)nn(-c2ccccc2)c1NC(=O)NC1CCOc2cc(F)ccc21 (stereo not drawn) [Example 12, 1-(1′,4-dimethyl-1-phenyl-1H,1′H-[3,4′-bipyrazol]-5-yl)-3-(7-fluorochroman-4-yl)urea]	Avg. POC (Yes): 119.5 POC; Avg. POC (eEF-2K): 140 POC; Avg. POC (IR): 92 POC; Avg. POC (ALK): 103 POC; Avg. POC (CK1gamma2): 114.5 POC; Avg. POC (CDK3/cyclinE): 98.5 POC; Avg. POC (Lck): 92 POC; Avg. POC (KDR): 119.5 POC; Avg. POC (Lyn): 104.5 POC; Avg. POC (JNK1alpha1): 109.5 POC; Avg. POC (Fgr): 114.5 POC; Avg. POC (Mer): 98 POC; Avg. POC (PKCalpha): 104 POC; Avg. POC (ERK1): 105 POC; Avg. POC (MRCKbeta): 103.5 POC; Avg. POC (Flt4): 83.5 POC; Avg. POC (ZAP-70): 140 POC; Avg. POC (Flt1): 93 POC; Avg. POC (DCAMKL2): 169 POC
98 POC	0.5 POC	102 POC	126.5 POC	119 POC	112 POC	100.5 POC	111 POC	71.5 POC	121.5 POC	98.5 POC	97 POC	99.5 POC	97.5 POC	104.5 POC	139 POC	116 POC	92.5 POC	107 POC	109 POC	Cc1c(-c2ccc(=O)n(C)c2)nn(-c2ccccc2)c1NC(=O)NC1CN(CC(F)(F)F)Cc2ccccc21 (stereo not drawn) [Example 26, 1-(4-methyl-3-(1-methyl-6-oxo-1,6-dihydropyridin-3-yl)-1-phenyl-1H-pyrazol-5-yl)-3-(2-(2,2,2-trifluoroethyl)-1,2,3,4-tetrahydroisoquinolin-4-yl)urea]	Avg. POC (Yes): 117.5 POC; Avg. POC (eEF-2K): 127.5 POC; Avg. POC (IR): 82.5 POC; Avg. POC (ALK): 117 POC; Avg. POC (CK1gamma2): 112.5 POC; Avg. POC (CDK3/cyclinE): 101.5 POC; Avg. POC (Lck): 96.5 POC; Avg. POC (KDR): 144.5 POC; Avg. POC (Lyn): 110.5 POC; Avg. POC (JNK1alpha1): 112 POC; Avg. POC (Fgr): 114.5 POC; Avg. POC (Mer): 98 POC; Avg. POC (PKCalpha): 107.5 POC; Avg. POC (ERK1): 109.5 POC; Avg. POC (MRCKbeta): 110 POC; Avg. POC (Flt4): 106 POC; Avg. POC (ZAP-70): 120.5 POC; Avg. POC (Flt1): 104 POC; Avg. POC (DCAMKL2): 135 POC
85 POC	0 POC	113.5 POC	124 POC	127 POC	110.5 POC	98 POC	107 POC	88.5 POC	135.5 POC	98.5 POC	87.5 POC	99.5 POC	119 POC	108.5 POC	119 POC	104 POC	92 POC	119.5 POC	110 POC	COCc1ccc2c(c1)C(NC(=O)Nc1c(C)c(-c3cnn(C)c3)nn1-c1ccccc1)COC2 (stereo not drawn) [Example 32, 1-(1′,4-dimethyl-1-phenyl-1H,1′H-[3,4′-bipyrazol]-5-yl)-3-(6-(methoxymethyl)isochroman-4-yl)urea]	Avg. POC (Yes): 114.5 POC; Avg. POC (eEF-2K): 115 POC; Avg. POC (IR): 109 POC; Avg. POC (ALK): 127 POC; Avg. POC (CK1gamma2): 101.5 POC; Avg. POC (CDK3/cyclinE): 102.5 POC; Avg. POC (Lck): 104.5 POC; Avg. POC (KDR): 129 POC; Avg. POC (Lyn): 106.5 POC; Avg. POC (JNK1alpha1): 118 POC; Avg. POC (Fgr): 109.5 POC; Avg. POC (Mer): 104 POC; Avg. POC (PKCalpha): 110 POC; Avg. POC (ERK1): 107 POC; Avg. POC (MRCKbeta): 103 POC; Avg. POC (Flt4): 98 POC; Avg. POC (ZAP-70): 124 POC; Avg. POC (Flt1): 103 POC; Avg. POC (DCAMKL2): 146 POC
